The text below walks through data of ChEMBL document CHEMBL5678818, “Discovery of potent SOS1 inhibitors that block RAS activation via disruption of the RAS-SOS1 interaction” (Proc Natl Acad Sci U S A, 2019).

In test [1] the target is Aurora kinase B (Homo sapiens) (UniProt Q96GD4). The test can be described thus: Inhibition of AURKB (unknown origin) assessed as residual activity at 1000 nM by KINOMEscan analysis relative to control.
Test [2] concerns the target Protein-tyrosine kinase 6 (Homo sapiens) (UniProt Q13882). The test can be described thus: Inhibition of BRK (unknown origin) assessed as residual activity at 1000 nM by KINOMEscan analysis relative to control.
In test [3] the test system is Epidermal growth factor receptor (Homo sapiens), P00533 [L858R]. The test can be described thus: Inhibition of EGFR L858R mutant (unknown origin) assessed as residual activity at 1000 nM by KINOMEscan analysis relative to control.
For test [4], the target named is T1, Ephrin type-A receptor 6 (Homo sapiens) (UniProt Q9UF33).
T1 sequence (whole entry): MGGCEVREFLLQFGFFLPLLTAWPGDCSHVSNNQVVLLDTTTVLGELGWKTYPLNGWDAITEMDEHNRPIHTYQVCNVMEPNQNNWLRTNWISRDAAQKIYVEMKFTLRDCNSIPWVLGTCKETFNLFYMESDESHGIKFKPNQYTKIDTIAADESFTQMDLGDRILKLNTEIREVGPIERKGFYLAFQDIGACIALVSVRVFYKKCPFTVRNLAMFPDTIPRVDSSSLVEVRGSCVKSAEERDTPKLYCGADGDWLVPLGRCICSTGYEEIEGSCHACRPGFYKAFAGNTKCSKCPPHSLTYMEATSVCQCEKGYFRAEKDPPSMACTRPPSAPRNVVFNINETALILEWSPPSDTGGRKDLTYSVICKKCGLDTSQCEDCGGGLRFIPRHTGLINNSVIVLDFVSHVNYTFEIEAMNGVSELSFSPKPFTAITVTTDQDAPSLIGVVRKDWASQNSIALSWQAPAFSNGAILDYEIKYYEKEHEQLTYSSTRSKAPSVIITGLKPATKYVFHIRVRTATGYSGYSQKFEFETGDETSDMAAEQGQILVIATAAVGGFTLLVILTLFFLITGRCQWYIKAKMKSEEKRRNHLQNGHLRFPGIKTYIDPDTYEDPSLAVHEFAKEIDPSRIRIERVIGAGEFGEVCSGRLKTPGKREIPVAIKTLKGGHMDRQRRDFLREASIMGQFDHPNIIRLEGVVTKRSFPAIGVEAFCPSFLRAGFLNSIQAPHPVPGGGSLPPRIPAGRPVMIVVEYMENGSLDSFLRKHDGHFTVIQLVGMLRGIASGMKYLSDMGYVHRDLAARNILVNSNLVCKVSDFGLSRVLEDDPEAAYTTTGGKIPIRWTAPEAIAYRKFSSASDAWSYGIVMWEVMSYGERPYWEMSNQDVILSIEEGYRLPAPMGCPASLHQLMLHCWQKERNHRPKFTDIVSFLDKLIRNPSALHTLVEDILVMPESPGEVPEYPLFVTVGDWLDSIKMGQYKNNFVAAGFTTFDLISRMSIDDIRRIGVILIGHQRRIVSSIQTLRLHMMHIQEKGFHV
Put plainly: Inhibition of EPHA6 (unknown origin) assessed as residual activity at 1000 nM by KINOMEscan analysis relative to control.

Test [5] addresses T2, Mitogen-activated protein kinase 15 (Homo sapiens) (UniProt Q8TD08).
T2 sequence (whole entry): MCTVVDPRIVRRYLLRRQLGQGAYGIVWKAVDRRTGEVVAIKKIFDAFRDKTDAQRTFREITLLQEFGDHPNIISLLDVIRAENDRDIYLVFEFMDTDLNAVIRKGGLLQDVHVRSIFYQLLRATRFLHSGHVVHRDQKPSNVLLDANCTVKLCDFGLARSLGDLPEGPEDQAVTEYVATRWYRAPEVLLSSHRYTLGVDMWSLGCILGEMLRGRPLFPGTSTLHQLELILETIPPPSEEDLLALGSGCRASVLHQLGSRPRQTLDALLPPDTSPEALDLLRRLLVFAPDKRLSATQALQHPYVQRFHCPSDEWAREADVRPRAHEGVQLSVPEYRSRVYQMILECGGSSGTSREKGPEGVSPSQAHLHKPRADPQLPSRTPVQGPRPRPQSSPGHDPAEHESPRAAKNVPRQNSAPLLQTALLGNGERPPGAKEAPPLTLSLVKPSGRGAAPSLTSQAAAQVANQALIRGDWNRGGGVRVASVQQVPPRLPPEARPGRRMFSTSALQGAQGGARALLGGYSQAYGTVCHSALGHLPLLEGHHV
The test can be described thus: Inhibition of ERK8 (unknown origin) assessed as residual activity at 1000 nM by KINOMEscan analysis relative to control.

In test [6] the test system is Mast/stem cell growth factor receptor Kit (Homo sapiens), P10721 [L576P]. The test can be described thus: Inhibition of KIT L576P mutant (unknown origin) assessed as residual activity at 1000 nM by KINOMEscan analysis relative to control.
For test [7], the target named is T3, cGMP-dependent protein kinase 2 (Homo sapiens) (UniProt Q13237).
T3 sequence (whole entry): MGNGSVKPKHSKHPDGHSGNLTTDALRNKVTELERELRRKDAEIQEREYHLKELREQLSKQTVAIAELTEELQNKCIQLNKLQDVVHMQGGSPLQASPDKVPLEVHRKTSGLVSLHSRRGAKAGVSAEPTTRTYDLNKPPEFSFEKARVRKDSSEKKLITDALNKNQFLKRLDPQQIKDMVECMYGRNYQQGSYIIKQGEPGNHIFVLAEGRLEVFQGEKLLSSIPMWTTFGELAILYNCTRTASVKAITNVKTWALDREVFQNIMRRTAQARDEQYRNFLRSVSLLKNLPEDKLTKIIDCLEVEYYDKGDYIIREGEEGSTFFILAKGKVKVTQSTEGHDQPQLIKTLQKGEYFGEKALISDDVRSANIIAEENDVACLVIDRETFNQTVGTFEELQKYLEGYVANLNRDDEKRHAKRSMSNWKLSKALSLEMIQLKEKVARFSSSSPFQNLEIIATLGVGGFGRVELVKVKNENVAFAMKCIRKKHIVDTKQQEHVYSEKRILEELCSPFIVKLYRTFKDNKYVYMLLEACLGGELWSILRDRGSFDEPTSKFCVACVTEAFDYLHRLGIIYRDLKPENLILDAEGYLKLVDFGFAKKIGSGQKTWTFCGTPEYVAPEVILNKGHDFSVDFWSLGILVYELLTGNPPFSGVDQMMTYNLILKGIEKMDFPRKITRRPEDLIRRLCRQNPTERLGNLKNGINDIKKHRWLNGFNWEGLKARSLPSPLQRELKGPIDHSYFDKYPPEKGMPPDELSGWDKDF
The test can be described thus: Inhibition of PRKG2 (unknown origin) assessed as residual activity at 1000 nM by KINOMEscan analysis relative to control.

Aurora kinase B (Homo sapiens), sequence (Q96GD4 whole entry): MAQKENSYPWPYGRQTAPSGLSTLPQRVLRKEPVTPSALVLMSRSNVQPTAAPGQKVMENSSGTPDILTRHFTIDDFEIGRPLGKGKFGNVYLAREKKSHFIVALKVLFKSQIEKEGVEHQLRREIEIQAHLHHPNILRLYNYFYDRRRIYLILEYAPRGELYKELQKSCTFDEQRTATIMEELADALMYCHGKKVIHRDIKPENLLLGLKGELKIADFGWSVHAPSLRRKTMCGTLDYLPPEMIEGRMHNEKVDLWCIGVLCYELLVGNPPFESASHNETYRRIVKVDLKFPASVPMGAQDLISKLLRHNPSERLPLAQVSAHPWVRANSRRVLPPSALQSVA
Mast/stem cell growth factor receptor Kit (Homo sapiens), P10721 [L576P], sequence (P10721 whole entry L576P): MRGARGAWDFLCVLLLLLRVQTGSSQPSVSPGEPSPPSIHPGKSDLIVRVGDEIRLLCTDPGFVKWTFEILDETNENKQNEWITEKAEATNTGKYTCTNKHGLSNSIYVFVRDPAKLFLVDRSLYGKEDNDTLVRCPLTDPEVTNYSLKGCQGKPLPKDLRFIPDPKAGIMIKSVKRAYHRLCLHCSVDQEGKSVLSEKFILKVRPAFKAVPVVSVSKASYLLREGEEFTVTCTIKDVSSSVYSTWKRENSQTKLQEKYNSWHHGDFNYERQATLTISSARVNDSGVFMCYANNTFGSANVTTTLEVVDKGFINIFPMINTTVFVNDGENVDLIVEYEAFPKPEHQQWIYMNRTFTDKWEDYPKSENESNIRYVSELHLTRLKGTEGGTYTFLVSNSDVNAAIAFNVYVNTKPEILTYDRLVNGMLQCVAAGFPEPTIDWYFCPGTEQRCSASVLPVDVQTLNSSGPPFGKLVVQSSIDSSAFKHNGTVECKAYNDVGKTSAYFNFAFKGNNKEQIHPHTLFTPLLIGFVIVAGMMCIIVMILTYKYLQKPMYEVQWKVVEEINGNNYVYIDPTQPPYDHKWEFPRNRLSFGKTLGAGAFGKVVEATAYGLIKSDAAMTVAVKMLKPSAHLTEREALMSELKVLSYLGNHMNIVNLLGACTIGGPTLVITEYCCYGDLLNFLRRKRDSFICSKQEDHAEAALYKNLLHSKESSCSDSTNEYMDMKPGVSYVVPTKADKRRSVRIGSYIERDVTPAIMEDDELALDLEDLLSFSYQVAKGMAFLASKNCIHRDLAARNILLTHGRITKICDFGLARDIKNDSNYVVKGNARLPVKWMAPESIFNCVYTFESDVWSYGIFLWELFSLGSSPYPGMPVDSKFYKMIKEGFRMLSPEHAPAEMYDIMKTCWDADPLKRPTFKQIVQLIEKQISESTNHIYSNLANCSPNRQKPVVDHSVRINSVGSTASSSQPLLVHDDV
Protein-tyrosine kinase 6 (Homo sapiens), sequence (Q13882 whole entry, looked up): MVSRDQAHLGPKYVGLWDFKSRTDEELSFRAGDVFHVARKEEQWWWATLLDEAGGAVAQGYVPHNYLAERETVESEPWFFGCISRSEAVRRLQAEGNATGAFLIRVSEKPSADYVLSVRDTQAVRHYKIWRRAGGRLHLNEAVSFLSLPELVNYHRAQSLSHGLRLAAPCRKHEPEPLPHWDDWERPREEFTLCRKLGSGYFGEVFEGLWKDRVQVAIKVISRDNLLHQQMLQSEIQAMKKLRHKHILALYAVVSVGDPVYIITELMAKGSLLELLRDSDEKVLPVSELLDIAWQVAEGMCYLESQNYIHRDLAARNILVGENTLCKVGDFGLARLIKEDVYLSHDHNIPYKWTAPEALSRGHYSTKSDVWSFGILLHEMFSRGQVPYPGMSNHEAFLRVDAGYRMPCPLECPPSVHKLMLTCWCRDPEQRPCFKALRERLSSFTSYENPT

In the case of `COc1cc2nc(C)nc(N[C@H](C)c3cccc(-c4cn[nH]c4)c3)c2cc1OC`, the Activity in test [1] is 79%; in test [2] it was 57%; in test [3] it was 100%; in test [4] it was 96%; in test [5], 60%; in test [6], 85%. Further, the Activity in test [7] amounted to 98%.
In the case of `COc1cc2ncnc(N[C@H](C)c3cccc4ccccc34)c2cc1OC`, the Activity in test [1] came out at 98%; in test [2], 100%; in test [3], 1.7%; in test [4], 88%; in test [5], 100%; in test [6] it was 95%. Besides, the Activity in test [7] was determined as 91%.
